Source: ChEMBL document CHEMBL1909046, “DrugMatrix in vitro pharmacology data”

biological target: Mu-type opioid receptor (Homo sapiens, UniProt P35372); test: DRUGMATRIX: Opiate mu (OP3, MOP) radioligand binding (ligand: [3H] Diprenorphine); type: cell membranes, CHO-K1, Membrane; settings: cho-k1; Not Active = under 50% inhibition at 10 µM
Sequence (P35372 whole entry): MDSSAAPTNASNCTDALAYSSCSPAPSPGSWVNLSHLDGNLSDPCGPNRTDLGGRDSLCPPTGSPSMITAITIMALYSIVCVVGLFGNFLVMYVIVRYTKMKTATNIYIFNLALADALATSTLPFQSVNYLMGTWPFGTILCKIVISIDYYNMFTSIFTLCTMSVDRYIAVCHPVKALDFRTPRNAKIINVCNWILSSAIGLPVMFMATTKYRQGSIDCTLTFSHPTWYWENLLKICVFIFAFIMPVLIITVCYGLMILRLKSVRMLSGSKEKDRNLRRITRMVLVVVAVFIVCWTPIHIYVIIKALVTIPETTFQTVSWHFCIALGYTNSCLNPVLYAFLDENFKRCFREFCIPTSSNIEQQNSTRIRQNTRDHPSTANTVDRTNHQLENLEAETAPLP

| Structure (SMILES) | IC50 |
| --- | --- |
| COc1ccc([C@@H]2Sc3ccccc3N(CCN(C)C)C(=O)[C@@H]2OC(C)=O)cc1 [DILTIAZEM] | Not Active |
| NCC(=O)O [GLYCINE] | Not Active |
| O=C1CCc2cc(OCCCCc3nnnn3C3CCCCC3)ccc2N1 [CILOSTAZOL] | Not Active |

biological target: T1, Caspase-1 (Homo sapiens, UniProt P29466); test: not given; design: species or system Escherichia coli; settings: not given;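 also: Caspase-1 enzyme inhibition assay with a peptide substrate; in other assays of this panel Not Active means under 50% inhibition at 10 µM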
T1 sequence (P29466 whole entry): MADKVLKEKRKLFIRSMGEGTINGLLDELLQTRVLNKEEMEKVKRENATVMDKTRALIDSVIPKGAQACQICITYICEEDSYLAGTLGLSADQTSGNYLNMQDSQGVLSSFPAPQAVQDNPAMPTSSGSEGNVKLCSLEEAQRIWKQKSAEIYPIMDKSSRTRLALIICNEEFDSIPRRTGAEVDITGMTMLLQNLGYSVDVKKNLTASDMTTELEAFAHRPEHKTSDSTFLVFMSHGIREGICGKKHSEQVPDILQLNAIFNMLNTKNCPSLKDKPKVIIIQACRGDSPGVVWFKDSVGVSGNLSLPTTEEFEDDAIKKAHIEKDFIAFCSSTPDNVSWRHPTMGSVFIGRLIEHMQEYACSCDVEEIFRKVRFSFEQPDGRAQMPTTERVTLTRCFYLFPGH

| Structure (SMILES) | IC50 |
| --- | --- |
| COc1ccc([C@@H]2Sc3ccccc3N(CCN(C)C)C(=O)[C@@H]2OC(C)=O)cc1 [DILTIAZEM] | Not Active |
| NCC(=O)O [GLYCINE] | Not Active |
| O=C1CCc2cc(OCCCCc3nnnn3C3CCCCC3)ccc2N1 [CILOSTAZOL] | Not Active |

biological target: Melanocortin receptor 4 (Homo sapiens, UniProt P32245); test: not given; type: cell membranes, Membrane; settings: hek293; also: in other assays of this panel Not Active means under 50% inhibition at 10 µM
Sequence (P32245 whole entry): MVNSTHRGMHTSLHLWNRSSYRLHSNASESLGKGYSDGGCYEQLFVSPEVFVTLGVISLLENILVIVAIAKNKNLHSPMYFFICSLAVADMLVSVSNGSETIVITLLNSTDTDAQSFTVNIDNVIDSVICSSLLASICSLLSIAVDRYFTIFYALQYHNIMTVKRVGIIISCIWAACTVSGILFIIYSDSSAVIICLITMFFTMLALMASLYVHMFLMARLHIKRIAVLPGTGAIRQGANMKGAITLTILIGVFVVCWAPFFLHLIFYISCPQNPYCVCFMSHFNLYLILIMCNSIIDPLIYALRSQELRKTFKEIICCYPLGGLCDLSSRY

| Structure (SMILES) | IC50 |
| --- | --- |
| COc1ccc([C@@H]2Sc3ccccc3N(CCN(C)C)C(=O)[C@@H]2OC(C)=O)cc1 [DILTIAZEM] | Not Active |
| NCC(=O)O [GLYCINE] | Not Active |
| O=C1CCc2cc(OCCCCc3nnnn3C3CCCCC3)ccc2N1 [CILOSTAZOL] | Not Active |

biological target: T2, Cysteinyl leukotriene receptor 1 (Homo sapiens, UniProt Q9Y271); test: not given; type: cell membranes, CHO-K1, Membrane; settings: cho-k1; also: in other assays of this panel Not Active means under 50% inhibition at 10 µM
T2 sequence (Q9Y271 whole entry): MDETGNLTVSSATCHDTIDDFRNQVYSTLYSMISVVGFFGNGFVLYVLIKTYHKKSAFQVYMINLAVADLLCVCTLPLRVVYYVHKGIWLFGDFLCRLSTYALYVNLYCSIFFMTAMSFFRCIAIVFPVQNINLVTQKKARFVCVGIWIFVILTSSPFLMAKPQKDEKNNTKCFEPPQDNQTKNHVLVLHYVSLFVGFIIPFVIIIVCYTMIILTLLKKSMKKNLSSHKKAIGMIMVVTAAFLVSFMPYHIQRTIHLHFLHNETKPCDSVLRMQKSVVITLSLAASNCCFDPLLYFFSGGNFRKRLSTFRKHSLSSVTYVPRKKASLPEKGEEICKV

| Structure (SMILES) | IC50 |
| --- | --- |
| COc1ccc([C@@H]2Sc3ccccc3N(CCN(C)C)C(=O)[C@@H]2OC(C)=O)cc1 [DILTIAZEM] | Not Active |
| NCC(=O)O [GLYCINE] | Not Active |
| O=C1CCc2cc(OCCCCc3nnnn3C3CCCCC3)ccc2N1 [CILOSTAZOL] | Not Active |

biological target: 5-hydroxytryptamine receptor 1B (Rattus norvegicus, UniProt P28564); test: not given; type: cell membranes, Wistar, Cerebral cortex, Membrane; settings: not given; also: in other assays of this panel Not Active means under 50% inhibition at 10 µM
Sequence (P28564 whole entry): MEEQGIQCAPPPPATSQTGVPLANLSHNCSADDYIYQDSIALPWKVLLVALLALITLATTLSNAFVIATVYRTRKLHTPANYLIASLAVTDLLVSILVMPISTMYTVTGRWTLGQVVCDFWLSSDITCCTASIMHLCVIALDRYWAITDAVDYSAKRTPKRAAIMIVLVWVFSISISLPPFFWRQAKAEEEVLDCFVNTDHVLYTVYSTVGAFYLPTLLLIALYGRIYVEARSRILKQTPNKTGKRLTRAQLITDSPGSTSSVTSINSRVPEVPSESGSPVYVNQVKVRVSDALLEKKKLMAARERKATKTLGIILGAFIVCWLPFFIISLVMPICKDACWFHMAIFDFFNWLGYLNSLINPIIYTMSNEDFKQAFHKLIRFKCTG

| Structure (SMILES) | IC50 |
| --- | --- |
| COc1ccc([C@@H]2Sc3ccccc3N(CCN(C)C)C(=O)[C@@H]2OC(C)=O)cc1 [DILTIAZEM] | Not Active |
| NCC(=O)O [GLYCINE] | Not Active |
| O=C1CCc2cc(OCCCCc3nnnn3C3CCCCC3)ccc2N1 [CILOSTAZOL] | Not Active |

system: not listed separately; test: DRUGMATRIX: Purinergic P2X radioligand binding (ligand: [3H] alpha, beta-Methylene-ATP); type: cell membranes, Oryctolagus cuniculus, New Zealand albino, Urinary bladder, Membrane; settings: Not Active = under 50% inhibition at 10 µM

| Structure (SMILES) | IC50 | Ki |
| --- | --- | --- |
| COc1ccc([C@@H]2Sc3ccccc3N(CCN(C)C)C(=O)[C@@H]2OC(C)=O)cc1 [DILTIAZEM] | Not Active | Not Active |
| NCC(=O)O [GLYCINE] | Not Active | Not Active |
| O=C1CCc2cc(OCCCCc3nnnn3C3CCCCC3)ccc2N1 [CILOSTAZOL] | Not Active | Not Active |

biological target: T3, Cathepsin G (Homo sapiens, UniProt P08311); test: not given; type: tissue-based; settings: neutrophil
T3 sequence (P08311 whole entry): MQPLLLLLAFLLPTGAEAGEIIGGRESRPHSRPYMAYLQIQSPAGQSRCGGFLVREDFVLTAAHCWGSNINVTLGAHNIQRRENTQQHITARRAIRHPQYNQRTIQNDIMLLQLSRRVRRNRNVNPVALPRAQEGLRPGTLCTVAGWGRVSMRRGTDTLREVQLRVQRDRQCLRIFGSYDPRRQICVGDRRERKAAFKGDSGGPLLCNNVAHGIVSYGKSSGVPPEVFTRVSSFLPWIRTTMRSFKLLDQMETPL

| Structure (SMILES) | IC50 |
| --- | --- |
| COc1ccc([C@@H]2Sc3ccccc3N(CCN(C)C)C(=O)[C@@H]2OC(C)=O)cc1 [DILTIAZEM] | Not Active |
| NCC(=O)O [GLYCINE] | Not Active |
| O=C1CCc2cc(OCCCCc3nnnn3C3CCCCC3)ccc2N1 [CILOSTAZOL] | Not Active |

biological target: T4, 5-hydroxytryptamine receptor 2C (Homo sapiens, UniProt P28335); test: DRUGMATRIX: Serotonin (5-Hydroxytryptamine) 5-HT2C radioligand binding (ligand: [3H] Mesulergine); type: cell membranes, CHO-K1, Membrane; settings: cho-k1; Not Active = under 50% inhibition at 10 µM
T4 sequence (P28335 whole entry): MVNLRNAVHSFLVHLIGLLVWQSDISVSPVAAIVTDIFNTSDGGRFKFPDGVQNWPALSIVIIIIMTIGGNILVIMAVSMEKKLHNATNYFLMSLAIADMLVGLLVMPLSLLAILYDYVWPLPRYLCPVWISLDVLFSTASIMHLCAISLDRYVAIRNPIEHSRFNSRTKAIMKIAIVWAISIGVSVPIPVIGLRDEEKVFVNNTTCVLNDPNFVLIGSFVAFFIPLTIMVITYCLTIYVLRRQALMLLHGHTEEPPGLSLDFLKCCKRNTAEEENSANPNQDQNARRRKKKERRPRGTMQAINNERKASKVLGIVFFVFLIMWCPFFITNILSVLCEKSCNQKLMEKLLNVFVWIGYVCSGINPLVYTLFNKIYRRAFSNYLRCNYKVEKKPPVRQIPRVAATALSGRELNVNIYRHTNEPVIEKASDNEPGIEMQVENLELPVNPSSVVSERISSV

| Structure (SMILES) | IC50 |
| --- | --- |
| COc1ccc([C@@H]2Sc3ccccc3N(CCN(C)C)C(=O)[C@@H]2OC(C)=O)cc1 [DILTIAZEM] | Not Active |
| NCC(=O)O [GLYCINE] | Not Active |
| O=C1CCc2cc(OCCCCc3nnnn3C3CCCCC3)ccc2N1 [CILOSTAZOL] | Not Active |

biological target: T5, D(4) dopamine receptor (Homo sapiens, UniProt P21917); test: DRUGMATRIX: Dopamine D4.2 radioligand binding (ligand: [3H] Spiperone); type: cell membranes, CHO-K1, Membrane; settings: cho-k1; Not Active = under 50% inhibition at 10 µM
T5 sequence (P21917 whole entry): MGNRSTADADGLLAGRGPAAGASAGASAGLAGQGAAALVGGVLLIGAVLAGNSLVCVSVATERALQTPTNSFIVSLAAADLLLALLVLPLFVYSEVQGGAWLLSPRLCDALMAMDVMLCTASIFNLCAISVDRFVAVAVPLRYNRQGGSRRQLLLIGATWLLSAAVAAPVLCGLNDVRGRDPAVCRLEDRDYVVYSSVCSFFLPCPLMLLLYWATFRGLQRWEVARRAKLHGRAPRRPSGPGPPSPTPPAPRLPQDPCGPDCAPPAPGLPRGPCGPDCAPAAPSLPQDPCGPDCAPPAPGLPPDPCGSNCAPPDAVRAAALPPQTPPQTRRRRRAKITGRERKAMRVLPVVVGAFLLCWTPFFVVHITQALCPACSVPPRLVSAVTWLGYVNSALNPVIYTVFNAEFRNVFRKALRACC

| Structure (SMILES) | IC50 |
| --- | --- |
| COc1ccc([C@@H]2Sc3ccccc3N(CCN(C)C)C(=O)[C@@H]2OC(C)=O)cc1 [DILTIAZEM] | Not Active |
| NCC(=O)O [GLYCINE] | Not Active |
| O=C1CCc2cc(OCCCCc3nnnn3C3CCCCC3)ccc2N1 [CILOSTAZOL] | Not Active |

biological target: Tyrosine-protein kinase Fyn (Homo sapiens, UniProt P06241); test: biochemical; type: cell-based, Insect cells; settings: insect cells
Sequence (P06241 whole entry): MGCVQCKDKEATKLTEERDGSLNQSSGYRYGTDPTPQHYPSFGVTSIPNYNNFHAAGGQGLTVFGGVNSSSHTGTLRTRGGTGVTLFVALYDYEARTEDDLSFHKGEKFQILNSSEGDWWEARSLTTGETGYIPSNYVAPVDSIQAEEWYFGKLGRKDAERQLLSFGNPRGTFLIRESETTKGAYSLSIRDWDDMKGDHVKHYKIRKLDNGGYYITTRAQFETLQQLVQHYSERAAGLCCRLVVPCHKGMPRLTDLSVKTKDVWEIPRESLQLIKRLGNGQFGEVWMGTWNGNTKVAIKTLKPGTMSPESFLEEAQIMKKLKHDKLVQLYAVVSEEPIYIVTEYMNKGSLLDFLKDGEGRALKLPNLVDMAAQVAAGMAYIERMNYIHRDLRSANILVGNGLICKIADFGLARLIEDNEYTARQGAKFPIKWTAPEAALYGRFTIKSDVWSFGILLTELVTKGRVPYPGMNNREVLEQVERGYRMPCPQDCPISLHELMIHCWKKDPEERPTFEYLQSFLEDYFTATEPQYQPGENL

| Structure (SMILES) | IC50 |
| --- | --- |
| COc1ccc([C@@H]2Sc3ccccc3N(CCN(C)C)C(=O)[C@@H]2OC(C)=O)cc1 [DILTIAZEM] | Not Active |
| NCC(=O)O [GLYCINE] | Not Active |
| O=C1CCc2cc(OCCCCc3nnnn3C3CCCCC3)ccc2N1 [CILOSTAZOL] | Not Active |

system: not listed separately; test: DRUGMATRIX: beta-Lactamase enzyme inhibition (substrate: Nitrocefin); design: species or system Bacillus cereus; settings: Not Active = under 50% inhibition at 10 µM

| Structure (SMILES) | IC50 | Ki |
| --- | --- | --- |
| COc1ccc([C@@H]2Sc3ccccc3N(CCN(C)C)C(=O)[C@@H]2OC(C)=O)cc1 [DILTIAZEM] | Not Active | Not Active |
| NCC(=O)O [GLYCINE] | Not Active | Not Active |
| O=C1CCc2cc(OCCCCc3nnnn3C3CCCCC3)ccc2N1 [CILOSTAZOL] | Not Active | Not Active |

biological target: Melanocortin receptor 5 (Homo sapiens, UniProt P33032); test: not given; type: cell membranes, HEK293, Membrane; settings: hek293; also: in other assays of this panel Not Active means under 50% inhibition at 10 µM
Sequence (P33032 whole entry): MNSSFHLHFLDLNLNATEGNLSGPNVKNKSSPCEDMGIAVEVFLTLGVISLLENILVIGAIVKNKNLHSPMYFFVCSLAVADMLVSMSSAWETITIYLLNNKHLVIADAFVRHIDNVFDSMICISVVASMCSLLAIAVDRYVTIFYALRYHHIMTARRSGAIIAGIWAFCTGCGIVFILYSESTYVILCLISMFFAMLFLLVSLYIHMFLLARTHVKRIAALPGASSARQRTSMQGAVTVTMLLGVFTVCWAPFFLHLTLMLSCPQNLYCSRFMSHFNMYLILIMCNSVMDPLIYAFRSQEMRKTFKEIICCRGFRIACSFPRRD

| Structure (SMILES) | IC50 |
| --- | --- |
| COc1ccc([C@@H]2Sc3ccccc3N(CCN(C)C)C(=O)[C@@H]2OC(C)=O)cc1 [DILTIAZEM] | Not Active |
| NCC(=O)O [GLYCINE] | Not Active |
| O=C1CCc2cc(OCCCCc3nnnn3C3CCCCC3)ccc2N1 [CILOSTAZOL] | Not Active |

biological target: Epidermal growth factor receptor (Homo sapiens, UniProt P00533); test: DRUGMATRIX: Protein Tyrosine Kinase, EGF Receptor enzyme inhibition (substrate: Poly(Glu:Tyr)); type: cell-based, Insect cells; settings: insect cells; Not Active = under 50% inhibition at 10 µM
Sequence (P00533 whole entry): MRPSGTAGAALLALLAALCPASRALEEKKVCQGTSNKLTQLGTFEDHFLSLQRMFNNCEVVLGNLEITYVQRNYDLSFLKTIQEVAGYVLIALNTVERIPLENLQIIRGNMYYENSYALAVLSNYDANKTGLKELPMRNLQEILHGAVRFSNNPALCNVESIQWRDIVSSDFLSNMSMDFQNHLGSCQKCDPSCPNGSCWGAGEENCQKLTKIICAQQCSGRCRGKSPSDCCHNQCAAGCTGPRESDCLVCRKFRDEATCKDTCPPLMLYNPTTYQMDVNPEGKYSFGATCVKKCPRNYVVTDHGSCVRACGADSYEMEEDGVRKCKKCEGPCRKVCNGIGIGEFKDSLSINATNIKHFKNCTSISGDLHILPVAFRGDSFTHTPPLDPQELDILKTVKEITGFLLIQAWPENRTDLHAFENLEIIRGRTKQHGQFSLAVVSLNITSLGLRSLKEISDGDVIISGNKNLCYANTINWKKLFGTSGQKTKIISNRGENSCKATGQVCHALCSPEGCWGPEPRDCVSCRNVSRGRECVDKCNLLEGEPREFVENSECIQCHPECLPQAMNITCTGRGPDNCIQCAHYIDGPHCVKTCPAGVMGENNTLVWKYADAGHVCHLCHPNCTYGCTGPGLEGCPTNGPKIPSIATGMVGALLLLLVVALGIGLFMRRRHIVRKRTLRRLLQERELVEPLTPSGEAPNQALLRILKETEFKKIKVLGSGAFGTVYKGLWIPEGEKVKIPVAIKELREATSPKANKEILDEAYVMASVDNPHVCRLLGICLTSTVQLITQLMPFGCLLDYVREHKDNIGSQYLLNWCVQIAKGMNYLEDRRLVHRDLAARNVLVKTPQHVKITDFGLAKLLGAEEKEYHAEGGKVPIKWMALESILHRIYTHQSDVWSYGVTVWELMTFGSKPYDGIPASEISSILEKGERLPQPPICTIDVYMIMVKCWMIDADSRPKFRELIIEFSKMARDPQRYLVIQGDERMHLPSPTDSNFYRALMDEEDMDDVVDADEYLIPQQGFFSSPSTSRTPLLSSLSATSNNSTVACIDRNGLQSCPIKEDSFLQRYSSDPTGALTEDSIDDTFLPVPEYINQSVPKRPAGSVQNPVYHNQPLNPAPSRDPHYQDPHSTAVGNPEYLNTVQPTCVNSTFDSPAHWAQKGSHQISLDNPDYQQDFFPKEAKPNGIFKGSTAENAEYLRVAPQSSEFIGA

| Structure (SMILES) | IC50 |
| --- | --- |
| COc1ccc([C@@H]2Sc3ccccc3N(CCN(C)C)C(=O)[C@@H]2OC(C)=O)cc1 [DILTIAZEM] | Not Active |
| NCC(=O)O [GLYCINE] | Not Active |
| O=C1CCc2cc(OCCCCc3nnnn3C3CCCCC3)ccc2N1 [CILOSTAZOL] | Not Active |

system: not listed separately; test: DRUGMATRIX: Sigma2 radioligand binding (ligand: [3H] Ifenprodil); type: cell membranes, Rattus norvegicus, Wistar, Brain, Membrane; settings: Not Active = under 50% inhibition at 10 µM

| Structure (SMILES) | IC50 | Ki |
| --- | --- | --- |
| COc1ccc([C@@H]2Sc3ccccc3N(CCN(C)C)C(=O)[C@@H]2OC(C)=O)cc1 [DILTIAZEM] | Not Active | Not Active |
| NCC(=O)O [GLYCINE] | Not Active | Not Active |
| O=C1CCc2cc(OCCCCc3nnnn3C3CCCCC3)ccc2N1 [CILOSTAZOL] | Not Active | Not Active |

system: not listed separately; test: DRUGMATRIX: Leukotriene, BLT (LTB4) radioligand binding (ligand: [3H]LTB4); type: cell membranes, Membrane; settings: u-937; Not Active = under 50% inhibition at 10 µM

| Structure (SMILES) | IC50 | Ki |
| --- | --- | --- |
| COc1ccc([C@@H]2Sc3ccccc3N(CCN(C)C)C(=O)[C@@H]2OC(C)=O)cc1 [DILTIAZEM] | Not Active | Not Active |
| NCC(=O)O [GLYCINE] | Not Active | Not Active |
| O=C1CCc2cc(OCCCCc3nnnn3C3CCCCC3)ccc2N1 [CILOSTAZOL] | Not Active | Not Active |

biological target: Beta-1 adrenergic receptor (Homo sapiens, UniProt P08588); test: DRUGMATRIX: Adrenergic beta1 radioligand binding (ligand: [125I] Cyanopindolol); type: cell membranes, CHO-K1, Membrane; settings: cho-k1; Not Active = under 50% inhibition at 10 µM
Sequence (P08588 whole entry): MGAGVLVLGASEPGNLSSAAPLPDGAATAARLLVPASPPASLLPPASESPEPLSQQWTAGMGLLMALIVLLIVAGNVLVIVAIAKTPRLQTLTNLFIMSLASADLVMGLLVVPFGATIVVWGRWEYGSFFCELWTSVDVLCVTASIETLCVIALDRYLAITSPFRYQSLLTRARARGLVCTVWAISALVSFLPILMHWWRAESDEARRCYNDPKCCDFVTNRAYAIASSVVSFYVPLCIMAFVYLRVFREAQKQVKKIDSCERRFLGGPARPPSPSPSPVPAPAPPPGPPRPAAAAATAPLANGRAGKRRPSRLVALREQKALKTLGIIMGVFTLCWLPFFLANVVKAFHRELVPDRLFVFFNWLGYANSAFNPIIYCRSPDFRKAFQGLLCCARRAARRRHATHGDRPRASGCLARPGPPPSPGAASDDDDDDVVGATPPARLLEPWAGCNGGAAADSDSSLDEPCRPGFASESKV

| Structure (SMILES) | IC50 |
| --- | --- |
| COc1ccc([C@@H]2Sc3ccccc3N(CCN(C)C)C(=O)[C@@H]2OC(C)=O)cc1 [DILTIAZEM] | Not Active |
| NCC(=O)O [GLYCINE] | Not Active |
| O=C1CCc2cc(OCCCCc3nnnn3C3CCCCC3)ccc2N1 [CILOSTAZOL] | Not Active |
